Laboratory results reported in patent US9200047B2, “SSX-2 peptides presented by HLA class II molecules” (Ludwig Institute for Cancer Research, Ltd., priority 2003, dated 2015).

Key:
Format in all cases: cell-based, human
CD4^+ T cells = assay: Intracellular IFN-γ / IL-2 staining of peptide-stimulated CD4+ T cell cultures from melanoma patients; details: culture from patient 672; not shown
Protocol: FIGS. 1A and 1B show detection of SSX-2 specific CD4^+ T cells in peptide stimulated cultures. The presence of specific CD4^+ T cells in the culture from patient 672 was assessed by intracellular staining with anti-IFN-γ (FIG. 1A, left panels) or anti-IL-2 antibodies (FIG. 1A, right panels) after stimulation with autologous PBMC alone (upper panels) or with the peptide submixture P1-3 (containing SSX-2 peptides 1-22, 13-34, 25-46). Numbers in upper right quadrants are percent of cytokine producing cells among CD4^+ T cells.
In vitro sensitization of CD4^+ T cells was carried out as described previously for CD8^+ T cells. […]
(§1) For intracellular cytokine secretion detection T cells were incubated with APC at a 1:1 T cells:APC ratio during 4-6 h in the absence or in the presence of peptides at the indicated dose. […] Cells were then permeabilized using saponine (Sigma, 0.1% in PBS 10% FCS) stained by incubation with mAb against IFN-γ or IL-2 (BD, Pharmingen) and analyzed by flow cytometry. […] After 24 h incubation at 37° C., culture supernatants were collected and the content of IFN-γ determined by ELISA (BioSource Europe, Fleurus, Belgium). […] Spots were counted using a stereomicroscope with a magnification of ×15. […]

[1] = system: SSX-2 specific CD4^+ T cells; assay: Presentation of exogenously added peptide by melanoma cell lines to specific CD4+ T cell clones (ELISPOT); details: two lines, Me 260 and T465A
Protocol: FIGS. 4A and 4B show the lack of tumor recognition by SSX-2 13-34 specific CD4^+ T cells. FIG. 4A: Recognition of Me 260 cells by CD4+ T cells was tested by ELISPOT in the absence or in the presence of exogeneously added peptide SSX-213-34. Where indicated, cells were treated with IFN-γ during 48 hr. FIG. 4B: Recognition of T465A was assessed as in […] as well as upon transfection with an SSX-2 encoding plasmid. The CD8+ T cell clone B3.4 specific for peptide SSX-2 41-49 was used as an internal control.
For intracellular cytokine secretion detection T cells were incubated with APC at a 1:1 T cells:APC ratio during 4-6 h in the absence or in the presence of peptides at the indicated dose. One hour after the beginning of the incubation Brefeldin A (20 μg/ml, Sigma Chemical Co., Steinheim, Germany) was added to inhibit cytokine secretion. At the end of the incubation period cells were stained with anti-CD4 mAb for 20 min at 4° C. and fixed. Cells were then permeabilized using saponine (Sigma, 0.1% in PBS 10% FCS) stained by incubation with mAb against IFN-γ or IL-2 (BD, Pharmingen) and analyzed by flow cytometry. Data analysis was performed using Cell Quest software. […] After 24 h incubation at 37° C., culture supernatants were collected and the content of IFN-γ determined by ELISA (BioSource Europe, Fleurus, Belgium). […] Spots were counted using a stereomicroscope with a magnification of ×15. […]

[2] = system: SSX-2 specific CD4^+ T cells; assay: Presentation of peptide SSX-2 13-34 by APC bearing different HLA-DP alleles (intracellular IFN-γ secretion); details: healthy donors (Caucasian); not shown
Protocol: FIG. 3A: Intracellular IFN-γ secretion by SSX-2 specific CD4+ T cells (clone 3C8) upon stimulation with peptide SSX-213-34 was assessed both in the absence and in the presence of anti HLA-DR, -DP or -DQ antibodies. FIG. 3B: The ability of APC bearing different HLA-DP alleles to present peptide SSX-2 13-34 to specific CD4^+ T cells was assessed by intracellular IFN-γ secretion.
Molecular typing of HLA-DP molecules, construction of plasmids and transient transfection. […]
as §1

[3] = system: SSX-2 specific CD4^+ T cells (clone 2C3); assay: IFN-γ secretion (ELISA) by SSX-2 specific CD4+ T cell clone in response to extended or truncated peptides; details: for peptide recognition relative to SEQ ID NO:1 (IFN-γ secretion): clone 2C3, EBV LAU 149 as APC, serial peptide dilutions, ELISA after 24 hrs
Protocol: FIG. 2 depicts determination of the minimal sequence optimally recognized by SSX-2 specific CD4^+ T cells. Synthetic peptides extended or truncated at the SSX-213-34 N- or C-terminus were used to determine the minimal length of the epitope recognized by SSX-2 specific CD4^+ T cells. Serial dilutions of each peptide were incubated with EBV LAU 149 and SSX-2 specific CD4^+ T cells. IFN-γ secretion was determined by ELISA in the culture supernatant after 24 hrs of culture. The peptides tested were: […] (SSX-213-34; SEQ ID NO:1); […] (SSX-213-36; SEQ ID NO:2); […] (SSX-213-32; SEQ ID NO:3); VGAQIPEKIQKAFDDIAK (SSX-213-30; SEQ ID NO:4); IPEKIQKAFDDIAKYFSK (SSX-217-34; SEQ ID NO:5); EKIQKAFDDIAKYFSK (SSX-219-34; SEQ ID NO:6); IQKAFDDIAKYFSK (SSX-221-34; SEQ ID NO:7) and […] (SSX-261-82; SEQ ID NO:30).
(§2) For intracellular cytokine secretion detection T cells were incubated with APC at a 1:1 T cells:APC ratio during 4-6 h in the absence or in the presence of peptides at the indicated dose. One hour after the beginning of the incubation Brefeldin A (20 μg/ml, Sigma Chemical Co., Steinheim, Germany) was added to inhibit cytokine secretion. At the end of the incubation period cells were stained with anti-CD4 mAb for 20 min at 4° C. and fixed. Cells were then permeabilized using saponine (Sigma, 0.1% in PBS 10% FCS) stained by incubation with mAb against IFN-γ or IL-2 (BD, Pharmingen) and analyzed by flow cytometry. Data analysis was performed using Cell Quest software. For detection of cytokine secretion in the culture supernatant T cells (10,000) were incubated with stimulating cells (15,000/well) in 96-well round-bottom plates in 200 μl/well of IMDM containing 10% human serum and 20 U/ml hrIL2. After 24 h incubation at 37° C., culture supernatants were collected and the content of IFN-γ determined by ELISA (BioSource Europe, Fleurus, Belgium). IFN-γ ELISPOT assay was performed as described previously (Ayyoub M. et al, 2002, J Immunol 32:2292-2299) using nitrocellulose-lined 96-well microplates (MAHA S45: Millipore, Bedford, Mass.) and an IFN-γ ELISPOT kit (DIACLONE, Besancon, France). Stimulator cells (5×10^4/well) were added together with the indicated number of T cells and peptide (2 μM) where indicated. Spots were counted using a stereomicroscope with a magnification of ×15.
To more precisely define the SSX-2-derived peptide optimally recognized by specific CD4^+ T cells from patient 672, we analyzed the relative capacity of peptide SEQ ID to NO:1 extended or truncated variants to stimulate IFN-γ secretion by specific clonal T cells (clone 2C3). […] Similar results were obtained using another CD4^+ T cell clone (not shown).

[4] = system: clonal CD8^+ T cells (clone B3.4); assay: Processing of exogenous SSX-2 protein by professional APC and recognition by SSX-2 41-49 specific CD8+ T cells; details: EBV and DC as APC
[5] = system: SSX-2 13-34 specific CD4^+ T cell clone 3C8; assay: Processing of soluble recombinant protein by professional APC and presentation to specific CD4+ T cells (ELISPOT)
Protocol: FIG. 5A: The ability of EBV LAU 149 to process the SSX-2 protein and present the relevant epitope to specific CD4+ T cells was assessed by ELISPOT after 12 hrs incubation with soluble recombinant SSX-2 protein followed by washing. NY-ESO-1 protein was used as an internal control. FIGS. 5B and 5C: Processing and presentation of the SSX-2 CD4^+ T cell epitope by LAU 672 autologous monocyte-derived DC was assessed as in FIG. 5A.
as §2
We then assessed the ability of professional APC to process the SSX-2 antigen and present the SSX-2 13-34 epitope to specific CD4^+ T cells.

Question: How did the “reactivity of the culture to single peptides in the submixture P1-3” value (CD4^+ T cells) turn out when “VGAQIPEKIQKAFDDIAKYFSK (listed as Homo sapiens) [SEQ ID NO:1]” was run?
Answer: Its value is “active peptide”.

Question: And the “presentation of peptide by melanoma cell lines to specific T cell clones” value [1]?
Answer: The value was “efficiently presented”.

Question: And the “PBMC from healthy donors able to present the epitope to CD4^+ T cells” value [2]?
Answer: Its value is 3 out of 14.

Question: “IPEKIQKAFDDIAKYFSK (listed as Homo sapiens) [SEQ ID NO:5]” was tested. Which “peptide recognition relative to SEQ ID NO:1 (IFN-γ secretion)” value [3] did it give?
Answer: Its value is “did not significantly affect recognition”.

Question: How did the “reduction of peptide activity” value ([3]; relative to SEQ ID NO:1, clone 2C3, IFN-γ ELISA) turn out when “IQKAFDDIAKYFSK (listed as Homo sapiens) [SEQ ID NO:7]” was run?
Answer: Its value is 10 fold.

Question: “EKIQKAFDDIAKYFSK (listed as Homo sapiens) [SEQ ID NO:6]” was tested. Which “peptide recognition relative to SEQ ID NO:1 (IFN-γ secretion)” value [3] did it give?
Answer: The value was “did not significantly affect recognition”.

Question: And the “epitope mapping: minimal peptide among analyzed peptides” value ([3]; clone 2C3, similar results with another CD4+ T cell clone)?
Answer: Its value is “minimal peptide optimally recognized”.

B1: SSX-2 protein: soluble recombinant SSX-2 protein given to APC (protein, UniProt Q16385 1-188, looked up)
Protein SSX2: MNGDDAFARRPTVGAQIPEKIQKAFDDIAKYFSKEEWEKMKASEKIFYVYMKRKYEAMTKLGFKATLPPFMCNKRAEDFQGNDLDNDPNRGNQVERPQMTFGRLQGISPKIMPKKPAEEGNDSEEVPEASGPQNDGKELCPPGKPTTSEKIHERSGPKRGEHAWTHRLRERKQLVIYEEISDPEEDDE
Question: Which “recognition of the CD8^+ T cell epitope SSX-2 41-49 after processing of exogenous protein” value [4] does the source give for B1 here?
Answer: Its value is “did not result in recognition”.

Question: And the “processing of protein and presentation of the epitope / stimulation of clone 3C8” value ([5]; EBV LAU 149 as APC, 12 hrs incubation with soluble recombinant protein)?
Answer: Its value is “efficiently process”.

Question: And the “stimulation of clone 3C8” value ([5]; EBV cells unable to present the peptide as APC)?
Answer: Its value is “not significantly stimulated”.

Question: What about the “presentation of the epitope to specific CD4+ T cells” value ([5]; LAU 672 autologous dendritic cells (DC) as APC) of the same molecule?
Answer: The value was “Efficient presentation”.
